Measurements reported in patent US10017481B2, “Conformationally constrained, fully synthetic macrocyclic compounds” (POLYPHOR AG, priority 2012, dated 2018).

How the values were obtained:
Type in all cases: in vitro ADME
[1] = Metabolic stability assay, CD-1 mouse microsomes; details: CD-1 mouse microsomes, 10 μM, 37° C.; for half-life at 10 μM: both sexes, 1 mg/ml protein, read-out: Metabolic Stability T ½ [min] mouse/(rat)
Experimental: (§1) 5. Plasma and Metabolic Stability Assays
(§2) Example compounds were dissolved in DMSO/H2O 90:10 to a final concentration of 10 mM for plasma stability determination and metabolic stability determination.
(§3) The assays were conducted according to literature precedents (F. P. Guengerich, Analysis and Characterization of Enzymes; in: Principles and Methods of Toxicology, A. W. Hayes (Ed.) Raven Press: New York, 1989, 777-813; R. Singh et al., In vitro metabolism of a potent HIV-protease inhibitor (141W94) using rat, monkey and human liver S9, Rapid Commun. Mass Spectrom. 1996, 10, 1019-1026).
(§4) Metabolic Stability Assay
(§5) Microsomes from a human 50 donor mixed gender pool and 1:1 mixtures of microsomes from CD-1 mouse single-gender pools are purchased from Celsis (Belgium). The enzymatic reaction is performed in a buffer containing an NADPH regeneration system and microsomes with the following end concentrations: 100 mM potassium phosphate buffer (all from Sigma), 1 mg/mL glucose-6-phosphate, 1 mg/mL β-nicotinamide adenine dinucleotide phosphate (NADP), 0.65 mg/mL magnesium chloride, 0.8 units/mL of glucose-6-phosphate dehydrogenase (prediluted with 5 mM citrate buffer), 10 μM compound and 1 mg/ml microsomal protein. Compounds are incubated at 37° C. in duplicates and samples are taken after 0, 5, 10, 20 and 60 minutes. After acetonitrile precipitation (3 volumes), shaking (2 minutes, 600 rpm) followed by centrifugation (10 minutes, 3200 g), the supernatant is dried reconstituted in the suitable solvent (cf. Table 33) and analyzed by HPLC/MS/MS. Metabolic turnover is expressed in % of the initial 0 minutes value and half life T½ (min) is calculated. Verapamil for human and propranolol for mouse are used as reference and are assayed with every experimental set.

[2] = Metabolic stability assay, human liver microsomes; details: human microsomes, 10 μM, 37° C.; for half-life at 10 μM: both sexes, liver microsomes, 1 mg/ml protein, read-out: Metabolic Stability T ½ [min] hum
Experimental: as §1, §2, §3, §4, §5

[3] = Plasma stability assay, CD-1 mouse plasma; details: for Plasma Stability 240 min mouse/(rat) [% remain.]: CD-1 mouse plasma, 10 μM, 37° C.; for half-life at 10 μM: both sexes, CD-1, mouse, plasma
Experimental: (§6) 5. Plasma and Metabolic Stability Assays Example compounds were dissolved in DMSO/H2O 90:10 to a final concentration of 10 mM for plasma stability determination and metabolic stability determination. The assays were conducted according to literature precedents (F. P. Guengerich, Analysis and Characterization of Enzymes; in: Principles and Methods of Toxicology, A. W. Hayes (Ed.) Raven Press: New York, 1989, 777-813; R. Singh et al., In vitro metabolism of a potent HIV-protease inhibitor (141W94) using rat, monkey and human liver S9, Rapid Commun. Mass Spectrom. 1996, 10, 1019-1026). Plasma Stability Assay Human plasma (Blutspendedienst SRK, Basel) and CD-1 mouse plasma (mixed gender pool >50 animals, Innovative Research, Calif., USA) are both sodium citrate stabilized. The assay is performed in triplicates at 10 μM compound concentration and 37° C. Samples are taken at 0, 15, 30, 60, 120 and 240 minutes and stopped by precipitation with 3 volumes of acetonitrile/formic acid 98:2 and shaking (2 minutes, 600 rpm) followed by filtration (−20 mm Hg). The filtrate is collected. The filtrate (100 μL) is evaporated and reconstituted in the suitable solvent (cf. Table 33) to be analyzed by HPLC/MS/MS. The resulting peak area counts are expressed in percent of the 0 value and used to determine the endpoint stability in % and the half life T in minutes. In order to monitor assay integrity the degradation of propantheline is assayed with every experimental set.

[4] = Plasma stability assay, human plasma; details: for Plasma Stability 240 min hum [% remain.]: human plasma, 10 μM, 37° C.; for half-life at 10 μM: human, plasma
Experimental: as §6

COc1ccc2c(c1)-c1cccc(c1)C(=O)N(C)[C@H](C(=O)O)CCC(=O)N[C@H](C)CO2 [Ex. 42, (10R,15S)-4-methoxy-10,16-dimethyl-12,17-dioxo-8-oxa-11,16-diazatricyclo[16.3.1.0^2,7]docosa-1(22),2,4,6,18,20-hexaene-15-carboxylic acid]
Metabolic Stability 60 min mouse/(rat) [% remain.] [1]: 100 % remain. | half-life at 10 μM [1]: > 60 min | half-life at 10 μM [2]: > 60 min | Metabolic Stability 60 min hum [% remain.] [2]: 100 % remain. | Plasma Stability 240 min mouse/(rat) [% remain.] [3]: 100 % remain. | half-life at 10 μM [3]: > 4 h | Plasma Stability 240 min hum [% remain.] [4]: 91 % remain. | half-life at 10 μM [4]: > 4 h

COc1ccc2c(c1)-c1cccc(c1)C(=O)N(C)[C@H](C(N)=O)CCC(=O)N[C@H](C)CO2 [Ex. 43, (10R,15S)-4-methoxy-10,16-dimethyl-12,17-dioxo-8-oxa-11,16-diazatricyclo[16.3.1.0^2,7]docosa-1(22),2,4,6,18,20-hexaene-15-carboxamide]
Metabolic Stability 60 min mouse/(rat) [% remain.] [1]: 83 % remain. | half-life at 10 μM [1]: > 60 min | half-life at 10 μM [2]: > 60 min | Metabolic Stability 60 min hum [% remain.] [2]: 100 % remain. | Plasma Stability 240 min mouse/(rat) [% remain.] [3]: 63 % remain. | half-life at 10 μM [3]: > 4 h | Plasma Stability 240 min hum [% remain.] [4]: 97 % remain. | half-life at 10 μM [4]: > 4 h

CNC(=O)[C@@H]1CCC(=O)N[C@H](C)COc2ccc(OC)cc2-c2cccc(c2)C(=O)N1C [Ex. 44, (10R,15S)-4-methoxy-N,10,16-trimethyl-12,17-dioxo-8-oxa-11,16-diazatricyclo[16.3.1.0^2,7]docosa-1(22),2,4,6,18,20-hexaene-15-carboxamide]
Metabolic Stability 60 min mouse/(rat) [% remain.] [1]: 77 % remain. | half-life at 10 μM [1]: > 60 min | half-life at 10 μM [2]: > 60 min | Metabolic Stability 60 min hum [% remain.] [2]: 68 % remain. | Plasma Stability 240 min mouse/(rat) [% remain.] [3]: 83 % remain. | half-life at 10 μM [3]: > 4 h | Plasma Stability 240 min hum [% remain.] [4]: 100 % remain. | half-life at 10 μM [4]: > 4 h

COc1ccc2c(c1)-c1cccc(c1)C(=O)N(C)[C@H](C(=O)Nc1ccccc1)CCC(=O)N[C@H](C)CO2 [Ex. 45, (10R,15S)-4-methoxy-10,16-dimethyl-12,17-dioxo-N-phenyl-8-oxa-11,16-diazatricyclo[16.3.1.0^2,7]docosa-1(22),2,4,6,18,20-hexaene-15-carboxamide]
Metabolic Stability 60 min mouse/(rat) [% remain.] [1]: 73 % remain. | half-life at 10 μM [1]: > 60 min | half-life at 10 μM [2]: > 60 min | Metabolic Stability 60 min hum [% remain.] [2]: 66 % remain. | Plasma Stability 240 min mouse/(rat) [% remain.] [3]: 46 % remain. | half-life at 10 μM [3]: 3.17 h | Plasma Stability 240 min hum [% remain.] [4]: 76 % remain. | half-life at 10 μM [4]: > 4 h

COc1ccc2c(c1)-c1cccc(c1)C(=O)N(C)[C@H](C(=O)NCC(F)(F)F)CCC(=O)N[C@H](C)CO2 [Ex. 53, (10R,15S)-4-methoxy-10,16-dimethyl-12,17-dioxo-N-(2,2,2-trifluoroethyl)-8-oxa-11,16-diazatricyclo[16.3.1.0^2,7]docosa-1(22),2,4,6,18,20-hexaene-15-carboxamide]
Metabolic Stability 60 min mouse/(rat) [% remain.] [1]: 92 % remain. | half-life at 10 μM [1]: > 60 min | half-life at 10 μM [2]: > 60 min | Metabolic Stability 60 min hum [% remain.] [2]: 100 % remain. | Plasma Stability 240 min mouse/(rat) [% remain.] [3]: 86 % remain. | half-life at 10 μM [3]: > 4 h

COc1ccc2c(c1)-c1cccc(c1)C(=O)N(C)[C@H](C(=O)NCCO)CCC(=O)N[C@H](C)CO2 [Ex. 55, (10R,15S)-N-(2-hydroxyethyl)-4-methoxy-10,16-dimethyl-12,17-dioxo-8-oxa-11,16-diazatricyclo[16.3.1.0^2,7]docosa-1(22),2,4,6,18,20-hexaene-15-carboxamide]
Metabolic Stability 60 min mouse/(rat) [% remain.] [1]: 98 % remain. | half-life at 10 μM [1]: > 60 min | half-life at 10 μM [2]: > 60 min | Metabolic Stability 60 min hum [% remain.] [2]: 97 % remain. | Plasma Stability 240 min mouse/(rat) [% remain.] [3]: 80 % remain. | half-life at 10 μM [3]: > 4 h

COc1ccc2c(c1)-c1cccc(c1)C(=O)N(C)[C@H](C(=O)N[C@@H](C)c1ccccc1)CCC(=O)N[C@H](C)CO2 [Ex. 58, (10R,15S)-4-methoxy-10,16-dimethyl-12,17-dioxo-N-[(1S)-1-phenylethyl]-8-oxa-11,16-diazatricyclo[16.3.1.0^2,7]docosa-1(22),2,4,6,18,20-hexaene-15-carboxamide]
Metabolic Stability 60 min mouse/(rat) [% remain.] [1]: 70 % remain. | half-life at 10 μM [1]: > 60 min | half-life at 10 μM [2]: > 60 min | Metabolic Stability 60 min hum [% remain.] [2]: 87 % remain. | Plasma Stability 240 min hum [% remain.] [4]: 95 % remain. | half-life at 10 μM [4]: > 4 h

COc1ccc2c(c1)-c1cccc(c1)C(=O)N(C)[C@H](C(=O)NCc1cccc3ccccc13)CCC(=O)N[C@H](C)CO2 [Ex. 60, (10R,15S)-4-methoxy-10,16-dimethyl-N-(1-naphthylmethyl)-12,17-dioxo-8-oxa-11,16-diazatricyclo[16.3.1.0^2,7]docosa-1(22),2,4,6,18,20-hexaene-15-carboxamide]
Metabolic Stability 60 min mouse/(rat) [% remain.] [1]: 19 % remain. | half-life at 10 μM [1]: 25 min | half-life at 10 μM [2]: 8 min | Metabolic Stability 60 min hum [% remain.] [2]: 0 % remain. | Plasma Stability 240 min hum [% remain.] [4]: 97 % remain. | half-life at 10 μM [4]: > 4 h

C[C@H]1COc2cccc(c2)-c2cccc(c2)C(=O)N(C)[C@H](C(=O)NCCc2ccccc2)CCC(=O)N1 [Ex. 73, (9S,14S)-9,15-dimethyl-11,16-dioxo-N-phenethyl-7-oxa-10,15-diazatricyclo [15.3.1.1^2,6]docosa-1(21),2(22),3,5,17,19-hexaene-14-carboxamide]
Metabolic Stability 60 min mouse/(rat) [% remain.] [1]: 0 % remain. | half-life at 10 μM [1]: 1 min | half-life at 10 μM [2]: 2 min | Metabolic Stability 60 min hum [% remain.] [2]: 0 % remain. | Plasma Stability 240 min hum [% remain.] [4]: 89 % remain. | half-life at 10 μM [4]: > 4 h

C[C@H](NC(=O)[C@@H]1CCC(=O)N[C@@H](C)COc2cccc(c2)-c2cccc(c2)C(=O)N1C)c1ccccc1 [Ex. 76, (9S,14S)-9,15-dimethyl-11,16-dioxo-N-[(1S)-1-phenylethyl]-7-oxa-10,15-diazatricyclo[15.3.1.1^2,6]docosa-1(21),2(22),3,5,17,19-hexaene-14-carboxamide]
Metabolic Stability 60 min mouse/(rat) [% remain.] [1]: 9 % remain. | half-life at 10 μM [1]: 15 min | half-life at 10 μM [2]: 16 min | Metabolic Stability 60 min hum [% remain.] [2]: 4 % remain. | Plasma Stability 240 min hum [% remain.] [4]: 88 % remain. | half-life at 10 μM [4]: > 4 h

C[C@H]1COc2cccc(c2)-c2cccc(c2)C(=O)N(C)[C@H](C(=O)N2CCC2)CCC(=O)N1 [Ex. 86, (9S,14S)-14-(1-azetanylcarbonyl)-9,15-dimethyl-7-oxa-10,15-diazatricyclo [15.3.1.1^2,6]docosa-1(21),2(22),3,5,17,19-hexaene-11,16-dione]
Metabolic Stability 60 min mouse/(rat) [% remain.] [1]: 71 % remain. | half-life at 10 μM [1]: > 60 min | Plasma Stability 240 min mouse/(rat) [% remain.] [3]: 60 % remain. | half-life at 10 μM [3]: > 4 h

C[C@H]1COc2cccc(c2)-c2cccc(c2)C(=O)N(C)[C@H](C(=O)NCc2cn(C)cn2)CCC(=O)N1 [Ex. 88, (9S,14S)-9,15-dimethyl-N-[(1-methyl-1H-imidazol-4-yl)methyl]-11,16-dioxo-7-oxa-10,15-diazatricyclo[15.3.1.1^2,6]docosa-1(21),2(22),3,5,17,19-hexaene-14-carboxamide]
Metabolic Stability 60 min mouse/(rat) [% remain.] [1]: 62 % remain. | half-life at 10 μM [1]: > 60 min | half-life at 10 μM [2]: 56 min | Metabolic Stability 60 min hum [% remain.] [2]: 49 % remain. | Plasma Stability 240 min mouse/(rat) [% remain.] [3]: 81 % remain. | half-life at 10 μM [3]: > 4 h
